Where two headings read alike, the source gives them in different places.
Legend:
[1] = Compound cytotoxicity in uninfected cells (same assay plate); assay type: cell-based; details: human, uninfected CEM-SS cells; read-out: Virus Replication CC50
Procedure: (§1) All samples were tested in duplicate. The HIV-1 virus strain RF was used to infect CEM-SS cells. Compound cytotoxicity was measured in the same assay plate using uninfected cells. Regression analysis was used to estimate the effective concentration (EC50) as well as the cytotoxic concentration (CC50).

[2] = tested on: HIV-1 virus strain RF in CEM-SS cells; assay: HIV-1 cytopathicity assay; assay type: cell-based; details: for Virus Replication EC50, protective effect class: tested up to 50 μM; for EC50: read-out: Virus Replication EC50
Procedure: This assay was conducted as previously reported (Weislow, O, S., et al., J. Natl. Cancer Inst., 81(8):577-86 (1989)). Samples were dissolved in DMSO at 10 mM and diluted to a final high concentration of 50 μM in the 96-well assay plate, with 2-fold dilutions made to a low concentration of about 0.78 μM. All samples were tested in duplicate. The HIV-1 virus strain RF was used to infect CEM-SS cells. Compound cytotoxicity was measured in the same assay plate using uninfected cells. Regression analysis was used to estimate the effective concentration (EC50) as well as the cytotoxic concentration (CC50).

[3] = biological target: T1, HIV-1 RNase H (p66/p51 HIV-1 RT) (Human immunodeficiency virus type 1 group M subtype B, UniProt P04585); assay: High throughput RNase H assay on sequence-independent RNA/DNA hybrid; assay type: biochemical; details: read-out: In vitro IC50
T1 construct: RT is a p66/p51 heterodimer comprised of asymmetrically-organized subunits processed from the 165 kDa gag/pol polyprotein precursor; (His)6; made in house; host or cells: Escherichia coli
Procedure: IC50 values were determined as previously reported (Budihas, S. R., et al., Nucleic Acids Res., 33(4):1249-56 (2005)), using an 18-nucleotide 3′-flourescein-labeled RNA annealed to a complementary 18-nucleotide 5′-dabsyl-labeled DNA. […] The reaction was initiated by adding 1 μl of 100 mM MgCl2 to 9 μl of mixture containing 4 ng enzyme, 200 nM substrate, 20 μM α-hydroxytropolones in 50 mM Tris, pH 8.0, 80 mM KCl, 2 mM DTT, and 10% DMSO at 37° C., and quenched with 10 μl of a gel-loading buffer after 10 minutes. Hydrolysis products were fractionated by denaturing polyacrylamide gel electrophoresis and visualized by fluorescent imaging (Typhoon Trio+, GE Healthcare, Piscataway, N.J.). […]

uninfected CEM-SS cells = assay: Compound cytotoxicity in uninfected cells (same assay plate); assay type: cell-based; details: for CC50: uninfected CEM-SS cells, read-out: Virus Replication CC50; for cytotoxicity (in words): up to a concentration of 50 μM
Procedure: as §1

HIV-1 RT RNase H = biological target: T2, HIV-1 RT RNase H (Human immunodeficiency virus type 1 group M subtype B, UniProt P04585); assay: Cleavage of the HIV-1 polypurine tract (PPT) primer, PPT/U3 junction; assay type: biochemical; details: 20 μM inhibitor
T2 construct: RT is a p66/p51 heterodimer comprised of asymmetrically-organized subunits processed from the 165 kDa gag/pol polyprotein precursor; (His)6; made in house; host or cells: Escherichia coli
Procedure: FIG. 2A depicts a schematic model of RNA/DNA substrate, indicating the RNase H cleavage site at the PPT/U3 junction (< >). The PPT is indicated by the shaded box. FIG. 2B depicts the quantification of PPT cleavage data. All inhibitors were evaluated at 20 μM.
IC50 values were determined as previously reported (Budihas, S. R., et al., Nucleic Acids Res., 33(4):1249-56 (2005)), using an 18-nucleotide 3′-flourescein-labeled RNA annealed to a complementary 18-nucleotide 5′-dabsyl-labeled DNA. […] The reaction was initiated by adding 1 μl of 100 mM MgCl2 to 9 μl of mixture containing 4 ng enzyme, 200 nM substrate, 20 μM α-hydroxytropolones in 50 mM Tris, pH 8.0, 80 mM KCl, 2 mM DTT, and 10% DMSO at 37° C., and quenched with 10 μl of a gel-loading buffer after 10 minutes. Hydrolysis products were fractionated by denaturing polyacrylamide gel electrophoresis and visualized by fluorescent imaging (Typhoon Trio+, GE Healthcare, Piscataway, N.J.).
Since the high-throughput RNase H assay examines non-specific, “polymerase-independent” RNase H activity defined by the spatial separation of the DNA polymerase and RNase H active site of HIV-1 RT (Gopalakrishnan, V., et al., Proc. Natl. Acad. Sci. USA, 89(22):10763-7 (1992)), an examination of whether α-hydroxytropolones altered cleavage specificity on a more biologically-relevant substrate, namely the polypurine tract (PPT) primer, which must be processed from the RNA/DNA replication intermediate to initiate (+) strand DNA synthesis.

[4] = HIV-1 RNase H enzymatic activity, sequence-independent RNA/DNA hybrid
[5] = Human immunodeficiency virus 1, CEM-SS, HIV-1 RF

Row | EC50 ([2]; Human immunodeficiency virus 1, HIV-1 RF) [µM] | SMILES | CC50 [1] [µM] | protection against the cytopathic effect of the virus (in words) ([2]; HIV-1 RF) | Virus Replication EC50, protective effect class ([2]; HIV-1 RF) | IC50 [3, 4] [µM] | CC50 (uninfected CEM-SS cells) [µM] | EC50 ([2]; HIV-1 RF) [µM] | IC50 [3] [µM] | EC50 [2, 5] [µM] | inhibition of PPT/U3 cleavage (in words) (HIV-1 RT RNase H) | inhibition at 20 µM (HIV-1 RT RNase H; read-out: effectiveness in inhibiting PPT/U3 cleavage) [%] | cytotoxicity (in words) (uninfected CEM-SS cells)
1 | – | CCSCC(C)(O)C1CCc2c(c(C)cc(O)c(=O)c2O)C1 (mixture of isomers) [Compound 6, 2-(2-Ethylthio-1-hydroxy-1-methyl-ethyl)-5,7-dihydroxy-9-methyl-1,2,3,4-tetrahydrobenzocyclohepten-6-one] | 25.8 | slight protection | <50% (<50%=protective effect less than 50% of control, i.e. weak activity) | 0.41 | – | – | – | – | – | – | –
2 | – | CC(C)c1ccc(O)c(=O)c(O)c1 [β-Thujaplicinol, reference compound] | – | no protection | – | – | 2.3 | 2.3 | 0.21 | – | – | – | –
3 | – | Cc1cc(O)c(=O)c(O)c2c1CC(C(C)(O)CS(=O)(=O)c1ccccc1)CC2 (mixture of isomers) [Compound 11, 2-(2-benzenesulfonyl-1-hydroxy-1-methyl-ethyl)-5,7-dihydroxy-9-methyl-1,2,3,4-tetrahydrobenzocyclohepten-6-one] | > 50 | showed protection | – | 0.59 | – | – | – | 21.2 | ineffective | – | –
4 | – | CCS(=O)(=O)CC(C)(O)C1CCc2c(c(C)cc(O)c(=O)c2O)C1 (mixture of isomers) [Compound 9, 2-(2-Ethanesulfonyl-1-hydroxy-1-methyl-ethyl)-5,7-dihydroxy-9-methyl-1,2,3,4-tetrahydrobenzocyclohepten-6-one] | 10.4 | slight protection | <50% (<50%=protective effect less than 50% of control, i.e. weak activity) | 0.26 | – | – | – | – | – | ~100 | –
5 | – | Cc1cc(O)c(=O)c(O)c2c1CC(C(C)(O)CSCc1ccccc1)CC2 (mixture of isomers) [Compound 8, 2-(2-Benzylthio-1-hydroxy-1-methyl-ethyl)-5,7-dihydroxy-9-methyl-1,2,3,4-tetrahydrobenzocyclohepten-6-one] | 17.4 | showed protection | – | 1.3 | – | – | – | ~4.2 | – | – | –
6 | – | Cc1cc(O)c(=O)c(O)c2c1CC(C(C)(O)CSc1ccccc1)CC2 (mixture of isomers) [Compound 7, 5,7-Dihydroxy-2-(1-hydroxy-1-methyl-2-phenylthio-ethyl)-9-methyl-1,2,3,4-tetrahydrobenzocyclohepten-6-one] | 17.8 | showed protection | – | 0.91 | – | – | – | 11.5 | – | – | –
7 | – | Cc1cc(O)c(=O)c(O)c2c1CC(C(C)(O)CN1CCCCC1)CC2 (mixture of isomers) [Compound 1, 5,7-Dihydroxy-2-(1-hydroxy-1-methyl-2-piperidin-1-yl-ethyl)-9-methyl-1,2,3,4-tetrahydro benzocyclohepten-6-one] | > 50 | showed protection | – | 0.93 | – | – | – | 10.2 | – | – | –
8 | – | CCN(CC)CC(C)(O)C1CCc2c(c(C)cc(O)c(=O)c2O)C1 (mixture of isomers) [Compound 3, 2-(2-Diethylamino-1-hydroxy-1-methyl-ethyl)-5,7-dihydroxy-9-methyl-1,2,3,4-tetrahydrobenzocyclohepten-6-one] | > 50 | slight protection | <50% (<50%=protective effect less than 50% of control, i.e. weak activity) | 0.49 | – | – | – | – | ineffective | – | –
9 | – | Cc1cc(O)c(=O)c(O)c2c1CC(C(C)(O)CNCc1ccccc1F)CC2 (mixture of isomers) [Compound 4, 2-[2-(2-Fluoro-benzylamino)-1-hydroxy-1-methyl-ethyl]-5,7-dihydroxy-9-methyl-1,2,3,4-tetrahydrobenzocyclohepten-6-one] | > 50 | no protection | – | 1.4 | – | – | – | – | less active | – | not cytotoxic
10 | – | Cc1cc(O)c(=O)c(O)c2c1CC(C(C)O)CC2 (mixture of isomers) [Compound 13, 5,7-Dihydroxy-2-(1-hydroxy-ethyl)-9-methyl-1,2,3,4-tetrahydrobenzocyclohepten-6-one] | 26.1 | showed protection | – | 0.75 | – | – | – | 6.9 | – | – | –
11 | 42.1 | Cc1cc(O)c(=O)c(O)c2c1CC(C(C)(O)Cn1ccnc1)CC2 (stereo not drawn) [Compound 2, 5,7-Dihydroxy-2-(1-hydroxy-2-imadazol-1-yl-1-methyl-ethyl)-9-methyl-1,2,3,4-tetrahydro benzocyclohepten-6-one] | > 50 | showed protection | – | – | – | – | – | – | less active | – | –
12 | – | Cc1cc(O)c(=O)c(O)c2c1CC(C(C)NCc1ccccc1)CC2 (mixture of isomers) [Compound 14, 2-(1-Benzylamino-ethyl)-5,7-Dihydroxy-9-methyl-1,2,3,4-tetrahydrobenzocyclohepten-6-one] | 16.7 | showed protection | – | 1.1 | – | – | – | 10.6 | less active | – | –
13 | – | Cc1cc(O)c(=O)c(O)c2c1CC(C(C)(O)CO)CC2 (mixture of isomers) [Compound 12, 2-(1,2-Dihydroxy-1-methyl-ethyl)-5,7-dihydroxy-9-methyl-1,2,3,4-tetrahydrobenzocyclohepten-6-one] | – | no protection | – | 1.9 | > 50 | – | – | – | – | – | not cytotoxic

Reference: patent publication US8993768B2, “Tropolone compounds for treating or preventing retroviral infection” (The United States of America, as represented by the …, priority 2011, dated 2015)
